Source: patent US20260265684A1, “EIMERIA VACCINE” (priority 2024, published 2026)

Key:
[1] = test system: Eimeria oocysts (E. acervulina, E. brunetti, E. maxima, E. mitis, E. necatrix and E. tenella); assay: Sporulation of Eimeria oocysts in different media, all species (Example 1); assay type: cell-based; details: for Average sporulation % across all species: 48 hours at 27° C., 150 rpm, three replicates, six species
[2] = test system: E. acervulina oocysts; assay type: cell-based; details: for relative difference in oocyst counts compared to group 1 (percentage difference), R1: replicate R1, post sporulation; for relative difference in oocyst counts compared to group 1 (percentage difference), R3: replicate R3, post sporulation
[3] = test system: E. brunetti oocysts; assay: Sporulation in different media: sporulation and post-sporulation oocyst count (Example 1); assay type: cell-based; details: for relative difference in oocyst counts compared to group 1 (percentage difference), R1: replicate R1, post sporulation; for relative difference in oocyst counts compared to group 1 (percentage difference), R3: replicate R3, post sporulation
[4] = test system: E. maxima oocysts; assay type: cell-based; details: for relative difference in oocyst counts compared to group 1 (percentage difference), R1: replicate R1, post sporulation; for relative difference in oocyst counts compared to group 1 (percentage difference), R3: replicate R3, post sporulation
[5] = test system: E. mitis oocysts; assay type: cell-based; details: for relative difference in oocyst counts compared to group 1 (percentage difference), R1: replicate R1, post sporulation; for relative difference in oocyst counts compared to group 1 (percentage difference), R3: replicate R3, post sporulation
[6] = test system: E. necatrix oocysts; assay: Sporulation in different media: sporulation and post-sporulation oocyst count (Example 1); assay type: cell-based; details: for relative difference in oocyst counts compared to group 1 (percentage difference), R1: replicate R1, post sporulation; for relative difference in oocyst counts compared to group 1 (percentage difference), R3: replicate R3, post sporulation
[7] = test system: E. tenella oocysts; assay type: cell-based; details: for relative difference in oocyst counts compared to group 1 (percentage difference), R1: replicate R1, post sporulation; for relative difference in oocyst counts compared to group 1 (percentage difference), R3: replicate R3, post sporulation
[8] = test system: microorganisms other than the Eimeria; assay type: cell-based; details: replicate sterility averaged across the 6 species; FIG. 13
[9] = test system: Eimeria oocysts; assay: Sporulation at variable solids content (Example 2); assay type: cell-based; details: 1%, 3% and 5% solids
[10] = test system: microorganisms other than the Eimeria; assay type: cell-based; details: across 1%, 3% and 5% solids and all species
[11] = test system: Candida albicans ATCC 10231; details: 27° C., FIG. 18A
Protocol: (§1) Each organism was exposed to each chemical mimicking the duration and conditions they would be used with for sporulation or sterilisation.
(§2) Organism suspensions were prepared by sub-culturing onto an appropriate growth plate and incubating under standard conditions. The growth was harvested and suspended in appropriate media. The starting titre for most organisms once inoculated into the test media was approximately ≤10^6 CFU/mL.
(§3) 0.1 mL of the harvested bacterial or fungal suspension was added to 9.9 mL of the solution being tested in a sterile glass vial (McCartney container). The inoculated solutions were incubated at 27° C. Zero hours samples were done with sterile water and not the solution being tested to determine a baseline for log reduction calculations. At the appropriate time point, 1 mL of sample was combined with 9 mL of sodium thiosulfate neutralizer (the 10:1 dilution). Serial dilutions in Peptone water (PEP) from 10^−2 to 10^−6 were plated out onto either TSA (bacterial) or SDA (fungal) plates. The 10^−1 dilution in neutraliser was also plated. Plates were incubated according to the organisms' requirements and the number of colonies counted at the end of the incubation period.

[12] = test system: Pseudomonas aeruginosa ATCC 9027; details: 27° C.; FIG. 18A
Protocol: as §1, §2, §3

[13] = test system: Staphylococcus aureus ATCC 6538; details: after the 48 hours, 27° C.; FIG. 18A
Protocol: as §1, §2, §3

[14] = test system: E. maxima oocysts; assay: Sporulation in 2% Proxitane with detergents, initial experiments (Example 4); assay type: cell-based
Protocol: (§4) The 2% Proxitane (~1000 ppm peracetic acid) sporulation media was prepared as described in Example 1. Detergents were added to the 2% Proxitane (~1000 ppm peracetic acid) solution at two concentrations: 0.05% solution and 0.5% solution. A 30% solution of Sarkosyl in 2% Proxitane (~1000 ppm peracetic acid) was prepared first before diluting to the desired concentration. Docusate dissolved in water with heat (up 90° C.) before adding the Proxitane.
(§5) Oocysts were sporulated in 15 or 50 mL tubes with at least 80% headspace (i.e. 10 mL liquid in 50 mL tube max). The amount of solids (unsporulated oocysts+debris) in this experiments was set to 2%, i.e. a solids ratio of 1:49.
(§6) All samples were incubated at 27° C. and about 150 rpm in the shaking incubator for 48 hours. Following sporulation, samples were either stored at 4-8° C. or evaluated immediately.
(§7) Sporulation level and oocyst health was evaluated as described in Example 1.

[15] = test system: E. mitis oocysts; assay: Sporulation in 2% Proxitane with anionic detergents, follow up trial (Example 4); assay type: cell-based; details: detergent 0.05% in 2% Proxitane; FIG. 19
Protocol: as §4, §5, §6, §7

Row | Compound | Average sporulation % across all species [1] | relative difference in oocyst counts compared to group 1 (percentage difference), R1 [2] | relative difference in oocyst counts compared to group 1 (percentage difference), R3 [2] | relative difference in oocyst counts compared to group 1 (percentage difference), R1 [3] | relative difference in oocyst counts compared to group 1 (percentage difference), R3 [3] | relative difference in oocyst counts compared to group 1 (percentage difference), R1 [4] | relative difference in oocyst counts compared to group 1 (percentage difference), R3 [4] | relative difference in oocyst counts compared to group 1 (percentage difference), R1 [5] | relative difference in oocyst counts compared to group 1 (percentage difference), R3 [5] | relative difference in oocyst counts compared to group 1 (percentage difference), R1 [6] | relative difference in oocyst counts compared to group 1 (percentage difference), R3 [6] | relative difference in oocyst counts compared to group 1 (percentage difference), R1 [7] | relative difference in oocyst counts compared to group 1 (percentage difference), R3 [7] | sterility [8] | further results
1 | O=CCCCC=O [0.2% glutaraldehyde, glutaraldehyde] | 78% | 1.31% | −1% | 3% | 91% | 3% | −3% | 8.68% | 1% | 7% | −61.49% | 3.12% | 30.08% |  | 
2 | OO [0.5% hydrogen peroxide, hydrogen peroxide] | 81% | 11.16% | −298% | −13% | 92% | 5% | −13% | 29.90% | 17% | 25% | −15.15% | 17.92% | 26.75% | 80% | sporulating oocysts compared with control group 1 ([1]; averaged sporulation from 3 replicates, across all the species tested (FIGS. 7-12)): comparable to or better than control group 1; sporulation compared with dichromate (in words) [9]: good sporulation compared to dichromate except with 5% solids; samples failing sterility (fail rate) [10]: 21%; reduction of titre before going back up at the last time point [11]: 4.32 logs; viability after treatment ([11]; after the 48 hours): still viable; time to inactivation [12]: within the first hour; viability after treatment [13]: still viable
3 | O=S(=O)([N-]Cl)c1ccccc1.[Na+] [1% chloramine B, chloramine B] | 81% | 9.43% | −137% | −7% | 91% | −4% | −4% | 12.16% | 8% | 24% | −27.13% | −1.16% | 40.83% |  | 
4 | [K+].[K+].[O]=[Cr](=[O])([O-])[O][Cr](=[O])(=[O])[O-] [2% potassium dichromate, potassium dichromate, reference compound] |  |  |  |  |  |  |  |  |  |  |  |  |  | failed to achieve sterility | sterility outcome (in words) [10]: failed to sterilise the material
5 | CCCCCCCCCCCCOS(=O)(=O)[O-].[Na+] [SDS] |  |  |  |  |  |  |  |  |  |  |  |  |  |  | percent sporulation ([14]; detergent 0.5% in 2% Proxitane, 2% solids, 48 hours): 40%; sticking of debris and oocysts ([14]; detergent in 2% Proxitane, data not shown): reduce sticking; oocyst damage ([14]; upon prolonged storage): cause damage to the oocyst wall
6 | CCCCCCCCCCCC(=O)N(C)CC(=O)[O-].[Na+] [sarkosyl, Sarkosyl] |  |  |  |  |  |  |  |  |  |  |  |  |  |  | sticking of debris to oocyst walls [15]: sticking of debris to oocyst walls was found
